Assay results taken from patent publication US9381229B2, “Pharmaceutical composition for use in the treatment of dysfunction associated with aging” (INSERM (INSTITUT NATIONAL DE LA SANTE ET DE LA RECHERCHE …, priority 2011, dated 2016).
Where two headings read alike, the source gives them in different places.

Tests used:
[1] = tested on: Myf5; conditions: for Myf5 marker quantification (mRNA), Mean: apelin 0.1 μmole/kg/day ip, 28 days
Experimental: (§1) Mice were handled in accordance with the principles and guidelines established by the National Institute of Medical Research (INSERM). C57B16/J wild type mice were obtained from Harlan (Gannat, France). CMV-KO apelin mice were obtained from Genoway (Lyon, France). Mice were housed conventionally in a constant temperature (20-22° C.) and humidity (50-60%) animal room, with a 12/12 h light/dark cycle (lights on at 8:00 am) and free access to food and water. The mice were fed a chow diet from weaning until 10-week-old and then either maintained on a chow diet (Research Diet, NJ).
(§2) Apelin treatment was processing to mice from 31 weeks old to 35 weeks old. Mice were daily injected with intraperitoneal injection of apelin (0.1 μmole/kg/day) as previously described (Higuchi et al 2005; Yue et al 2010) for 28 days. Age-matched control mice were PBS-injected during the same period. All mice were sacrificed 24 h after the last apelin ip injection in a fed state.
(§3) Total RNAs ([…]) were isolated from muscles using GeneJET RNA Purification Kit (Fermentas, USA). Total RNAs were reverse transcribed using random hexamers and Superscript 11 reverse transcriptase (Invitrogen, UK). Real time PCR was performed as previously described (Boucher et al. 2005).

[2] = tested on: MyoD; conditions: for MyoD marker quantification (mRNA), Mean: apelin 0.1 μmole/kg/day ip, 28 days
Experimental: as §1, §2, §3

[3] = tested on: Myostatin; conditions: for Myostatin marker quantification (mRNA), Mean: apelin 0.1 μmole/kg/day ip, 28 days
Experimental: as §1, §2, §3

[4] = tested on: myogenin; conditions: for myogenin marker quantification (mRNA), Mean: apelin 0.1 μmole/kg/day ip, 28 days
Experimental: as §1, §2, §3

[5] = Plasma apelin concentration after ip bolus of apelin (Example 1); type: in vivo, mice; conditions: bolus of ip apelin 0.1 μmole/kg; 10 min after injection
[6] = Plasma apelin concentration in HFD mice (Example 3); type: in vivo
Experimental: Plasma fatty acids (FM) and TGs measured by colorimetric technique with the Wako NEFA kit (Wako Chemicals) and the PAP 150 Kit (bioMerieux), respectively, as well as plasma leptin, adiponectin (Quantikine; R&D Systems), and apelin (Phoenix Pharmaceuticals, Inc.), were determined in the fed state at the end of the treatment. Insulinemia (Mercodia, Uppsala, Sweden) and glycemia measured with a glucometer (Accu-check; Roche Diagnostics) were determined in the fasted state on blood from the tail vein.

[7] = tested on: AMPK; conditions: muscle of HFD AMPK-DN apelin-treated mice
Experimental: (§4) Mice were handled in accordance with the principles and guidelines established by INSERM. C57B16/J wild-type (WT) mice were obtained from Harlah (Gannat, France). […] Moris J. Birnbaum (Howard Hughes Medical Institute, University of Pennsylvania, Philadelphia, Pa.). Apelin-deficient (apelin−/−) mice were generated as described previously (10) and backcrossed to C57B16/J mice >10 times. Mice were housed conventionally in a constant temperature (20-22° C.) and humidity (50-60%) animal room, with a 12/12 h light/dark cycle (lights on at 7:00 a.m.) and free access to food and water. The C57B16/J and AMPK-DN mice were fed an ND from weaning until aged 10 weeks and then either maintained on ND (control group) or fed an HFD containing 20% protein, 35% carbohydrate, and 45% fat (Research Diets, New Brunswick, N.J.). Apelin treatment began after the onset of insulin resistance in males aged 23 weeks. Mice were injected daily with apelin-13 (Phoenix Biotech) at […] i.p. as previously described (7) for 28 days. Age-matched control mice were PBS injected during the same period. Standard mice were also treated with a specific APJ receptor antagonist (F13A) (Phoenix Biotech) (11) at 0.2 μmol/kg/day during 28 days or with the combination of apelin and F13A. All mice were killed 24 h after the last apelin injection in a fed state.

[8] = tested on: Malonyl-CoA; conditions: soleus muscle of insulin-resistant mice
Experimental: as §4

[9] = tested on: citrate synthase; conditions: muscle homogenates; HFD mice; n=7-9; P<0.001 vs control
Experimental: as §4

[10] = tested on: mitochondria of soleus muscle; conditions: HFD mice
Experimental: as §4

[11] = tested on: muscle of insulin-resistant mice; conditions: HFD mice; chronic apelin treatment 28 days
Experimental: as §4

[12] = tested on: soleus muscle
Experimental: as §4

[13] = tested on: ACC; conditions: muscle of insulin-resistant mice
Experimental: as §4
(§5) Membranes were probed with β-actin or AMPK or ACC antibodies for total proteins.

[14] = tested on: AMPK; conditions: muscle of insulin-resistant mice
Experimental: as §4, §5

[15] = tested on: mitochondrial complexes; conditions: muscle of HFD mice; chronic apelin treatment
Experimental: as §4, §5

[16] = tested on: PGC1-α; conditions: soleus muscle; HFD mice; chronic apelin treatment
Experimental: as §4
(§6) Total RNAs (1 μg) were isolated from muscle using RNA STAT (AMS Technology, Lutterworth, U.K.) and were reverse transcribed using random hexamers and Superscript II reverse transcriptase (Invitrogen, Paisley, U.K.). Real time PCR was performed as previously described (1). Analysis of the 18S ribosomal RNA was performed using the ribosomal RNA control TaqMan Assay Kit (Applied Biosystems) to normalize gene expression.

[17] = tested on: PGC1-β; conditions: soleus muscle; HFD mice; chronic apelin treatment
Experimental: as §4, §6

[18] = tested on: mitochondrial transcription factor A (TFAM); conditions: soleus muscle; HFD mice; chronic apelin treatment
Experimental: as §4, §6

[19] = tested on: nuclear respiratory factor 1 (NRF1); conditions: soleus muscle; HFD mice; chronic apelin treatment
Experimental: as §4, §6

[20] = tested on: mtDNA; test: Mitochondrial DNA analysis in soleus muscle (COX1 to cyclophilin A); type: in vivo; conditions: HFD mice
Experimental: Total DNA was extracted from soleus muscle using a commercial kit (DNeasy; QIAGEN). The content of mitochondrial (mt)DNA was calculated using real-time quantitative PCR by measuring the threshold cycle ratio of a mitochondrial encoded gene (COX1) and a nuclear-encoded gene (cyclophilin A) as previously described (15).

[21] = quadriceps muscles of moderate aged-mice, 28-days treatment
[22] = soleus muscle, HFD mice, chronic apelin treatment

Q: For `CSCC[C@H](NC(=O)[C@@H]1CCCN1C(=O)CNC(=O)[C@H](CCCCN)NC(=O)[C@H](Cc1cnc[nH]1)NC(=O)[C@H](CO)NC(=O)[C@H](CC(C)C)NC(=O)[C@H](CCCNC(=N)N)NC(=O)[C@@H]1CCCN1C(=O)[C@H](CCCNC(=N)N)NC(=O)[C@@H](N)CCC(N)=O)C(=O)N1CCC[C@H]1C(=O)N[C@@H](Cc1ccccc1)C(=O)O` [apelin, apelin-13], which “Myf5 marker quantification (mRNA), Mean” value ([1]; EDL muscle) is on record?
A: 1.200

Q: And the “Myf5 marker quantification (mRNA), Mean” value ([1]; Gas muscle)?
A: 5.340

Q: And the “Myf5 marker quantification (mRNA), Mean” value ([1]; Quad muscle)?
A: 5.820

Q: What about the “Myf 5 expression, change in words (FIGS. 1A and B)” value [1, 21] of the same compound?
A: increased

Q: What about the “MyoD marker quantification (mRNA), Mean” value ([2]; EDL muscle) of the same compound?
A: 142.520

Q: What about the “MyoD marker quantification (mRNA), Mean” value ([2]; Gas muscle) of the same compound?
A: 222.300

Q: What about the “MyoD marker quantification (mRNA), Mean” value ([2]; Quad muscle) of the same compound?
A: 328.160

Q: What about the “MyoD expression, change in words (FIGS. 1A and B)” value [2, 21] of the same compound?
A: increased

Q: And the “Myostatin marker quantification (mRNA), Mean” value ([3]; EDL muscle)?
A: 114.660

Q: And the “Myostatin marker quantification (mRNA), Mean” value ([3]; Gas muscle)?
A: 1034.000

Q: What about the “Myostatin marker quantification (mRNA), Mean” value ([3]; Quad muscle) of the same compound?
A: 244.300

Q: What about the “myostatin expression, change in words (FIGS. 1A and B)” value [3, 21] of the same compound?
A: decrease

Q: And the “myogenin marker quantification (mRNA), Mean” value (shortened to “myogenin marker quantification”) ([4]; EDL muscle)?
A: 14.280

Q: What about the “myogenin marker quantification” value ([4]; Gas muscle) of the same compound?
A: 23.360

Q: And the “myogenin marker quantification” value ([4]; Quad muscle)?
A: 35.060

Q: What about the “Myogenin expression, change in words (FIGS. 1A and B)” value [4, 21] of the same compound?
A: increased

Q: What about the “Plasma apelin concentrations, increase” value [5] of the same compound?
A: over 2.5 fold

Q: What about the “Plasma apelin concentrations, increase” value ([6]; HFD mice, bolus of apelin 0.1 μmol/kg i.p., 10 min after injection) of the same compound?
A: > 2.4 fold

Q: What about the “Plasma apelin concentrations, apelin-treated vs PBS-treated mice” value ([6]; at the end of the 28-day treatment) of the same compound?
A: not different

Q: And the level at 10 min ([6]; mouse, in vivo, ip, 0.1 umol/kg, HFD mice, bolus of apelin 0.1 μmol/kg i.p., 10 min after injection, n=5)?
A: 4.12 ± 0.96 ng/mL

Q: And the “apelin-increased FAO in HFD AMPK-DN mice vs HFD WT (FIG. 6C)” value [7]?
A: completely blunted

Q: What about the “apelin-increased mitochondrial biogenesis in HFD AMPK-DN mice vs HFD WT (FIG. 6D)” value [7] of the same compound?
A: completely blunted

Q: What about the “overexpression of PGC1-α, TFAM, and NRF1 in HFD AMPK-DN mice (FIG. 6E)” value [7] of the same compound?
A: reduced

Q: What about the “malonyl-CoA concentrations (FIG. 6B)” value [8] of the same compound?
A: significant reduction

Q: And the citrate synthase activity [9]?
A: 2.91±0.07 μmol/min/mg proteins

Q: What about the “alterations of mitochondria ultrastructure in IMF and SS mitochondria (FIG. 5E)” value [10] of the same compound?
A: Fewer adverse alterations

Q: What about the “density of intramyofibrillar (IMF) mitochondria (FIG. 5E)” value [10] of the same compound?
A: significantly increased

Q: And the “succinate and adenylate-driven respiration (State 3)” value ([10]; permeabilized soleus fibers)?
A: significantly higher

Q: What about the “succinate-driven mitochondrial respiration (complex II) vs control (FIG. 5A)” value ([10]; permeabilized soleus fibers) of the same compound?
A: significantly higher

Q: What about the “glutamate/malate-driven mitochondrial respiration (complex I), apelin- vs PBS-treated” value ([10]; permeabilized soleus fibers, data not shown) of the same compound?
A: No difference

Q: And the “amount of IMTG and DAG in muscle vs PBS treatment (FIG. 4A)” value [11]?
A: does not reduce

Q: What about the “insulin-stimulated glucose uptake vs PBS-treated mice (FIG. 7B)” value ([12]; 100 nmol/L insulin, HFD mice) of the same compound?
A: significantly increased

Q: What about the “rate of palmitate incorporation into TG (FIG. 4B)” value ([12]; HFD mice, chronic apelin treatment 28 days) of the same compound?
A: no effect

Q: What about the “acylcarnitine levels, especially C16:1 and C18:1 species, vs HFD PBS-treated mice (FIG. 7A)” value ([12]; soleus muscle homogenates) of the same compound?
A: reduced

Q: And the “complete oxidation of [14C]palmitate to CO2 vs PBS treatment (FIG. 4C)” value [12, 22]?
A: significantly increased

Q: And the “incomplete oxidation of [14C]palmitate (FIG. 4C)” value [12, 22]?
A: not significantly increased

Q: And the “ACC phosphorylation (FIG. 6A)” value [13]?
A: significantly increased

Q: What about the “AMPK phosphorylation (FIG. 6A)” value [14] of the same compound?
A: significantly increased

Q: What about the “Protein expression of complex II, III, and V (FIG. 5B)” value [15] of the same compound?
A: significantly increased

Q: And the “Expression of PGC1-α (FIG. 5C)” value [16]?
A: significantly increased

Q: What about the “expression of PGC1-β (FIG. 5C)” value [17] of the same compound?
A: not modified

Q: What about the “expression of TFAM” value [18] of the same compound?
A: upregulated

Q: And the “expression of NRF1” value [19]?
A: upregulated

Q: What about the “mtDNA-to-nuclear DNA ratio vs PBS-treated mice (FIG. 5D)” value [20] of the same compound?
A: significantly higher
